Measurements: US10597391B2, “Urea-containing isoxazole derivatives as FXR agonists and methods of use thereof” (Enanta Pharmaceuticals, Inc., priority 2016, dated 2020)
Like-named read-outs stand apart in the source and are kept apart here.

Biological target: T1, human FXR (NR1H4) (Homo sapiens, UniProt Q96RI1)
T1 sequence (Q96RI1 1-486): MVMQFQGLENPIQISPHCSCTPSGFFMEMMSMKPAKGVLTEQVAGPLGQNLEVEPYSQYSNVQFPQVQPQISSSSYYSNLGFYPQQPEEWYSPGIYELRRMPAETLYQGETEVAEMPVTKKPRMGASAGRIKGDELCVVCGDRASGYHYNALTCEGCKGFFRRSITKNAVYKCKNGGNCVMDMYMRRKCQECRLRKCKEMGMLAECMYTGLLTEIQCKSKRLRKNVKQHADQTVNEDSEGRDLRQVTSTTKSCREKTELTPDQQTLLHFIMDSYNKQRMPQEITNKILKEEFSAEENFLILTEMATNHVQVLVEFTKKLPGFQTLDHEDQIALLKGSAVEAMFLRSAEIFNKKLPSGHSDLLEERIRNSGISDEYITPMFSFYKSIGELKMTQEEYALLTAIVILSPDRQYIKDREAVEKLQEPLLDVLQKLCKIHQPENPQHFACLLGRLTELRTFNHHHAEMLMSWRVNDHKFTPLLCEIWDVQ
Test: Human FXR (NR1H4) Assay: Gal4 promoter driven luciferase reporter transactivation in CHO cells (Indigo Bioscience kit IB00601)
Assay type: cell-based
Settings: for EC50: Human FXR (NR1H4) reporter assay in CHO cells; for Emax: CHO, read-out: Efficacy (%)
Source text: Human FXR (NR1H4) Assay Determination of a ligand mediated Gal4 promoter driven transactivation to quantify ligand binding mediated activation of FXR. FXR Reporter Assay kit purchased from Indigo Bioscience (Catalogue number: IB00601) to determine the potency and efficacy of compounds that can induce FXR activation. The principle application of this reporter assay system is to quantify functional activity of human FXR. The assay utilizes non-human mammalian cells, CHO (Chinese hamster ovary) cells engineered to express human NR1H4 protein (referred to as FXR). Reporter cells also incorporate the cDNA encoding beetle luciferase which catalyzes the substrates and yields photon emission. Luminescence intensity of the reaction is quantified using a plate-reading luminometer, Envision. Reporter Cells include the luciferase reporter gene functionally linked to an FXR responsive promoter. Thus, quantifying changes in luciferase expression in the treated reporter cells provides a sensitive surrogate measure of the changes in FXR activity. […] The assay is according to the manufacturer's instructions. […] Retrieve Reporter Cells from −80° C. storage. Perform a rapid thaw of the frozen cells by transferring a 10 ml volume of 37° C. cell recovery medium into the tube of frozen cells. […] Retrieve the tube of Reporter Cell Suspension from the water bath. […] Dispense 90 μl of cell suspension into each well of the 96-well Assay Plate. Transfer the plate into 37° C. incubator, allowing the cells adherent to the bottom of the well. Dilute compounds in Dilution Plate (DP), and administrate to cells at Assay Plate (AP). […] Cells were incubated for additional 22 hours before luciferase activities were measured. Thirty minutes before intending to quantify FXR activity, remove Detection Substrate and Detection Buffer from the refrigerator and place them in a low-light area so that they may equilibrate to room temperature. Remove the plate's lid and discard all media contents by ejecting it into an appropriate waste container. Gently tap the inverted plate onto a clean absorbent paper towel to remove residual droplets. Cells will remain tightly adhered to well bottoms. Add 100 μl of luciferase detection reagent to each well of the assay plate. Allow the assay plate to rest at room temperature for at least 5 minutes following the addition of LDR. Set the instrument (Envision) to perform a single 5 second “plate shake” prior to reading the first assay well. Read time may be 0.5 second (500 mSec) per well.

[1] = efficacy normalized to CDCA set as 100%

| SMILES | EC50 (potency range, read-out: EC50) | Emax [1] | Emax | EC50 (EC50, potency range) |
| --- | --- | --- | --- | --- |
| O=C(Nc1cccc(F)c1)N1C2CCC1CC(OCc1c(-c3c(Cl)cccc3Cl)noc1C1CC1)C2 (stereo not shown) [Example 1] | < 10 nM | – | – | – |
| COC(=O)c1cc(NC(=O)N2C3CCC2CC(OCc2c(-c4c(Cl)cccc4Cl)noc2C2CC2)C3)cc(-c2cccnc2)c1 (stereo not shown) [Example 726] | < 10 nM | 81% | – | – |
| O=C(O)c1cccc(NC(=O)N2C3CCC2CC(OCc2c(-c4ccccc4OC(F)(F)F)noc2C2CC2)C3)c1 (stereo not shown) [Example 229] | 100 to 1000 nM | – | – | – |
| CC(C)(C)c1ccc(NC(=O)N2C3CCC2CC(OCc2c(-c4c(Cl)cccc4Cl)noc2C2CC2)C3)cc1 (stereo not shown) [Example 697] | 100 to 1000 nM | 174% | – | – |
| O=C(O)c1cccc(NC(=O)N2C3CCC2CC(OCc2c(-c4ccccc4OC(F)(F)F)noc2C2CC2)C3)n1 (stereo not shown) [Example 771] | > 1000 nM | 54% | – | – |
| NS(=O)(=O)c1cccc(NC(=O)N2C3CCC2CC(OCc2c(-c4c(Cl)cccc4Cl)noc2C2CC2)C3)c1 (stereo not shown) [Example 24] | 100 to 1000 nM | – | – | – |
| O=C(O)c1ccc(NC(=O)N2C3CCC2CC(OCc2c(-c4c(Cl)cccc4Cl)noc2C2CC2)C3)cc1-c1ccccc1 (stereo not shown) [Example 201] | < 10 nM | – | – | – |
| O=C(Nc1cc(F)c(F)c(F)c1)N1C2CCC1CC(OCc1c(-c3c(Cl)cccc3Cl)noc1C1CC1)C2 (stereo not shown) [Example 10] | 10 to 100 nM | – | – | – |
| O=C(NCc1ccc(F)cc1)N1C2CCC1CC(OCc1c(-c3c(Cl)cccc3Cl)noc1C1CC1)C2 (stereo not shown) [Example 732] | < 10 nM | 180% | – | – |
| O=C(NC1CCCCC1)N1C2CCC1CC(OCc1c(-c3c(Cl)cccc3Cl)noc1C1CC1)C2 (stereo not shown) [Example 30] | 10 to 100 nM | – | – | – |
| CCOC(=O)c1ccc(NC(=O)N2C3CCC2CC(NCc2c(-c4c(Cl)cccc4Cl)noc2C2CC2)C3)cc1 (stereo not shown) [Example 825] | 10 to 100 nM | 104% | – | – |
| O=C(c1cccc(NC(=O)N2C3CCC2CC(OCc2c(-c4c(Cl)cccc4Cl)noc2C2CC2)C3)c1)N1CCOCC1 (stereo not shown) [Example 214] | 10 to 100 nM | – | – | – |
| O=C(O)c1ccc(NC(=O)N2C3CCC2CC(OCc2c(C4CCC5(CC4)CC5)noc2C2CC2)C3)cc1-c1ccccc1 (stereo not shown) [Example 293] | 10 to 100 nM | – | – | – |
| COc1c(NC(=O)N2C3CCC2CC(OCc2c(-c4ccccc4OC(F)(F)F)noc2C2CC2)C3)cccc1C(=O)OC(C)(C)C (stereo not shown) [Example 760] | > 1000 nM | 180% | – | – |
| COC(=O)c1ccc(F)c(NC(=O)N2C3CCC2CC(OCc2c(-c4c(Cl)cccc4Cl)noc2C2CC2)C3)c1 (stereo not shown) [Example 722] | < 10 nM | 115% | – | – |
| COC(=O)c1ccc(NC(=O)N2C3CCC2CC(OCc2c(-c4c(Cl)cccc4Cl)noc2C2CC2)C3)cc1C(F)(F)F (stereo not shown) [Example 194] | < 10 nM | – | – | – |
| O=C(Nc1cccc(-c2ccncc2)c1)N1C2CCC1CC(OCc1c(-c3c(Cl)cccc3Cl)noc1C1CC1)C2 (stereo not shown) [Example 836] | < 10 nM | 135% | – | – |
| COC(=O)c1ccc2nc(NC(=O)N3C4CCC3CC(OCc3c(-c5c(Cl)cccc5Cl)noc3C3CC3)C4)ccc2c1 (stereo not shown) [Example 785] | 10 to 100 nM | 46% | – | – |
| O=C(O)c1ccc(NC(=O)N2C3CCC2CC(OCc2c(-c4ccccc4C(F)(F)F)noc2C2CC2)C3)cc1-c1ccccc1 (stereo not shown) [Example 815] | 10 to 100 nM | 36% | – | – |
| COC(=O)c1ccc(NC(=O)N2C3CCC2CC(OCc2c(-c4c(Cl)cccc4Cl)noc2C2CC2)C3)c(OC(C)C)c1 (stereo not shown) [Example 719] | 100 to 1000 nM | 104% | – | – |
| COC(=O)c1c(F)cc(NC(=O)N2C3CCC2CC(OCc2c(-c4c(Cl)cccc4Cl)noc2C2CC2)C3)cc1F (stereo not shown) [Example 198] | < 10 nM | – | – | – |
| Cn1nnc(-c2cccc(NC(=O)N3C4CCC3CC(OCc3c(-c5c(Cl)cccc5Cl)noc3C3CC3)C4)c2)n1 (stereo not shown) [Example 187] | 10 to 100 nM | – | – | – |
| CCOC(=O)c1ccccc1NC(=O)N1C2CCC1CC(OCc1c(-c3ccccc3OC(F)(F)F)noc1C1CC1)C2 (stereo not shown) [Example 743] | > 1000 nM | 140% | – | – |

| SMILES | EC50 (potency range, read-out: EC50) | Emax [1] | Emax | EC50 (EC50, potency range) |
| --- | --- | --- | --- | --- |
| O=C(O)c1ccc(NC(=O)N2C3CCC2CC(OCc2c(-c4ccccc4OC(F)(F)F)noc2C2CC2)C3)nc1 (stereo not shown) [Example 769] | 100 to 1000 nM | 132% | – | – |
| O=C(Nc1cc(-c2cccnc2)cc(C(F)(F)F)c1)N1C2CCC1CC(OCc1c(-c3c(Cl)cccc3Cl)noc1C1CC1)C2 (stereo not shown) [Example 14] | < 10 nM | – | – | – |
| CC(C)Oc1cc(C(=O)O)ccc1NC(=O)N1C2CCC1CC(OCc1c(-c3c(Cl)cccc3Cl)noc1C1CC1)C2 (stereo not shown) [Example 721] | 10 to 100 nM | 133% | – | – |
| O=C(Nc1ccc2ccccc2c1)N1C2CCC1CC(OCc1c(-c3c(Cl)cccc3Cl)noc1C1CC1)C2 (stereo not shown) [Example 20] | 10 to 100 nM | – | – | – |
| O=C(Nc1cccc(-c2ccccc2)c1)N1C2CCC1CC(NCc1c(-c3c(Cl)cccc3Cl)noc1C1CC1)C2 (stereo not shown) [Example 773] | – | – | 135% | 10 to 100 nM |
| O=C(O)c1ccc(F)c(NC(=O)N2C3CCC2CC(OCc2c(-c4ccccc4OC(F)(F)F)noc2C2CC2)C3)c1 (stereo not shown) [Example 748] | 10 to 100 nM | 103% | – | – |
| O=C(Nc1cccc(C(F)(F)F)c1)N1C2CCC1CC(NCc1c(-c3ccccc3OC(F)(F)F)noc1C1CC1)C2 (stereo not shown) [Example 121] | 10 to 100 nM | – | – | – |
| O=C(O)c1ccc(NC(=O)N2C3CCC2CC(OCc2c(-c4ccccc4C4CC4)noc2C2CC2)C3)c(C(F)(F)F)c1 (stereo not shown) [Example 820] | 10 to 100 nM | 13% | – | – |
| COC(=O)c1ccc(NC(=O)N2C3CCC2CC(OCc2c(-c4ccccc4OC(F)(F)F)noc2C2CC2)C3)cc1OC(F)(F)F (stereo not shown) [Example 821] | 10 to 100 nM | 75% | – | – |
| O=C(O)c1cnc2ccc(NC(=O)N3C4CCC3CC(OCc3c(-c5c(Cl)cccc5Cl)noc3C3CC3)C4)cc2c1 (stereo not shown) [Example 211] | 100 to 1000 nM | – | – | – |
| CCOC(=O)c1ccc(NC(=O)N2C3CCC2CC(NCc2c(-c4ccccc4OC(F)(F)F)noc2C2CC2)C3)c(OCC)c1 (stereo not shown) [Example 831] | 10 to 100 nM | 15% | – | – |
| O=C(O)c1cnc2cc(NC(=O)N3C4CCC3CC(OCc3c(-c5c(Cl)cccc5Cl)noc3C3CC3)C4)ccc2c1 (stereo not shown) [Example 779] | 10 to 100 nM | 50% | – | – |
| CN(C)S(=O)(=O)NC(=O)c1ccc(NC(=O)N2C3CCC2CC(OCc2c(-c4ccccc4OC(F)(F)F)noc2C2CC2)C3)cc1 (stereo not shown) [Example 753] | 10 to 100 nM | 217% | – | – |
| CC(C)(C)c1ccc(S(=O)(=O)NC(=O)c2ccc(NC(=O)N3C4CCC3CC(OCc3c(-c5ccccc5OC(F)(F)F)noc3C3CC3)C4)cc2)cc1 (stereo not shown) [Example 757] | 100 to 1000 nM | 257% | – | – |
| O=C(Nc1ccc(F)c(C(F)(F)F)c1)N1C2CCC1CC(OCc1c(-c3c(Cl)cccc3Cl)noc1C1CC1)C2 (stereo not shown) [Example 702] | < 10 nM | 258% | – | – |
| CCOC(=O)c1ccnc(NC(=O)N2C3CCC2CC(OCc2c(-c4ccccc4OC(F)(F)F)noc2C2CC2)C3)c1 (stereo not shown) [Example 765] | 10 to 100 nM | 272% | – | – |
| O=C(O)c1ccc(NC(=O)N2C3CCC2CC(OCc2c(-c4c(Cl)cccc4Cl)noc2C2CC2)C3)cc1-c1cncnc1 (stereo not shown) [Example 782] | 10 to 100 nM | 20% | – | – |
| O=C(Nc1cccc(-c2ccc(C(F)(F)F)nc2)c1)N1C2CCC1CC(OCc1c(-c3c(Cl)cccc3Cl)noc1C1CC1)C2 (stereo not shown) [Example 706] | 10 to 100 nM | 207% | – | – |
| CS(=O)(=O)NC(=O)c1ccc(NC(=O)N2C3CCC2CC(OCc2c(-c4ccccc4OC(F)(F)F)noc2C2CC2)C3)cc1 (stereo not shown) [Example 752] | > 1000 nM | 239% | – | – |
| COC(=O)c1ccc(NC(=O)N2C3CCC2CC(OCc2c(-c4ccccc4OC(F)(F)F)noc2C2CC2)C3)c(OC)c1 (stereo not shown) [Example 236] | 10 to 100 nM | – | – | – |
| CCOc1cc(C(=O)O)ccc1NC(=O)N1C2CCC1CC(OCc1c(-c3ccccc3C(F)(F)F)noc1C1CC1)C2 (stereo not shown) [Example 812] | 10 to 100 nM | 102% | – | – |
| O=C(NCc1ccccc1-c1ccccc1)N1C2CCC1CC(OCc1c(-c3c(Cl)cccc3Cl)noc1C1CC1)C2 (stereo not shown) [Example 740] | < 10 nM | 90% | – | – |
| O=C(Nc1ccc(-c2nnn[nH]2)cc1)N1C2CCC1CC(OCc1c(-c3c(Cl)cccc3Cl)noc1C1CC1)C2 (stereo not shown) [Example 701] | 100 to 1000 nM | 306% | – | – |
